Values quoted from earlier work in US20220288147A1, “GINSENG COMPOSITION AND USE THEREOF AS A MEDICAMENT” (BOTALYS SA, priority 2019, published 2022).

Settings: oral

Compound | Absorption rates of an orally administered dose
CC(C)=CCC[C@](C)(O[C@@H]1O[C@H](CO)[C@@H](O)[C@H](O)[C@H]1O)[C@H]1CC[C@]2(C)[C@@H]1[C@H](O)C[C@@H]1[C@@]3(C)CC[C@H](O)C(C)(C)[C@@H]3[C@@H](O[C@@H]3O[C@H](CO)[C@@H](O)[C@H](O)[C@H]3O)C[C@]12C [Rg1] | ≥ 0.1%
CC(C)=CCC[C@](C)(O)[C@H]1CC[C@]2(C)[C@@H]1[C@H](O)C[C@@H]1[C@@]3(C)CC[C@H](O)C(C)(C)[C@@H]3[C@@H](O[C@@H]3O[C@H](CO)[C@@H](O)[C@H](O)[C@H]3O[C@@H]3O[C@@H](C)[C@H](O)[C@@H](O)[C@H]3O)C[C@]12C [Rg2] | ≥ 1.9%
